Patent publication US3977944A, “Enzyme-kinetic determination of the concentration of a substrate” (Eppendorf Geratebau Netheler & Hinz GmbH, priority 1973, dated 1976)

Key:
[1] = molecular target: T1, uricase (Sus scrofa, UniProt P16164); assay: Kinetic uric acid determination with uricase, average inhibition (Table 4); assay type: biochemical
T1 sequence (P16164 2-304 limits assumed): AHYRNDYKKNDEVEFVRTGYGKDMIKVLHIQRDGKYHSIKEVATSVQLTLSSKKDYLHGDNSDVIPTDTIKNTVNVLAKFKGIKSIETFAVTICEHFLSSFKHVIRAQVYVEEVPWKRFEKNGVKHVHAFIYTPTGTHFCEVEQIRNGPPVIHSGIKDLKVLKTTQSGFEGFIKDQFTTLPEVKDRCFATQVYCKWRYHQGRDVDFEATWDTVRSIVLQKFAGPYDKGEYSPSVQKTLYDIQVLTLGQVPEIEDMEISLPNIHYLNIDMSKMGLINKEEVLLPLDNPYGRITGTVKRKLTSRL
From the text: (§1) The exclusion of the interference of foreign inhibitors that can be achieved by the invention is illustrated by the measurements obtained for two different enzymes and two different inhibitors each, which are listed in the following two tables.

[2] = molecular target: T1, uricase; assay: Inhibition of Uricase, Example 6; assay type: biochemical
From the text: (§2) The following test mixture was used:
96 mmoles borate buffer pH = 9.5
114 - 7.6 μmoles uric acid

[3] = molecular target: GlucDH (Priestia megaterium, UniProt P07999); assay: Kinetic glucose determination with GlucDH, average inhibition (Table 3); assay type: biochemical
Chain of GlucDH (P07999 whole entry): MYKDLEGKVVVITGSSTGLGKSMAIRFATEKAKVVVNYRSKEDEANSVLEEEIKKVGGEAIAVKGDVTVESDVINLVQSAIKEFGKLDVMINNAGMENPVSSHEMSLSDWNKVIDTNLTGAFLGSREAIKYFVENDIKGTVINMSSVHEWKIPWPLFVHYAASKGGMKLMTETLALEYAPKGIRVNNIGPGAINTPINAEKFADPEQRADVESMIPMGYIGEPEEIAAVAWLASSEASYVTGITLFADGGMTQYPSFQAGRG
From the text: as §1

[4] = molecular target: T2, glucose dehydrogenase (Priestia megaterium, UniProt P07999); assay: Kinetic glucose determination with glucose-dehydrogenase, Example 4 (1.8 U enzyme); assay type: biochemical
T2 sequence (P07999 whole entry): as above
From the text: as §2
0.12 mole phosphate buffer pH = 7.6
40 millimoles sulfosalicylic acid
0.86 millimole - 2.59 millimoles glucose
1.8 U glucose-dehydrogenase

[5] = molecular target: T2, glucose dehydrogenase; assay: Kinetic glucose determination with glucose-dehydrogenase, Example 5 (95 mU enzyme); assay type: biochemical
From the text: as §2
90 mmoles phosphate buffer pH = 7.6
40 mmoles sulfosalicylic acid
95 mU glucose dehydrogenase

[6] = molecular target: uricase (prepared from swine liver) (Sus scrofa, UniProt P16164)
Protocol: Recording is started 20 seconds after initiation of the reaction: paper speed 2 cm/min, spread 20 cm for E=0-1. With an angle measuring means, the angle α formed with the time axis is measured at the beginning of each recording. The reciprocals of tan α are plotted as ordinates against the corresponding reciprocal uric acid concentrations (Lineweaver-Burk diagram). The calibration straight line is drawn through the points obtained with and without the addition of potassium thiocyanate.
For the determination of the apparent Michaelis constant, the reciprocals of the tangent α are plotted as ordinates, and the reciprocal molar substrate concentrations in the test mixture as abscissae. The apparent Michaelis constant is found as a negative reciprocal of the abscissae intersections of the straight lines of regression (insertion of suitable small values for 1/cS followed by graphic evaluation).

[7] = molecular target: T2, glucose dehydrogenase; conditions: Lineweaver-Burk diagram, FIG. 1; 330 and 500 mmoles KSCN per liter of test solution
Protocol: The reaction was started by the admixture of 20 μl of 200 mmoles/l NAD^+, and recording was begun 10 seconds later: paper feed 5 cm/min, spread 20 cm for E = 0 - 1.
For the determination of the angle α with the axis of time the virtually linear initial area of the recording was evaluated; for the determination of the type of inhibitor, the reciprocals of tangent α (identical with the initial rate, for practical purposes) were plotted as ordinates and the reciprocals of the millimolar glucose concentrations used in the test were plotted as abscissae (Lineweaver-Burk diagram).
20 μl of specimen was incubated in the cell at 25°C with 500 μl of stabilized buffer-enzyme-inhibitor mixture and the reaction was started by the admixture of 20 μl NAD^+ (150 mg/ml H2 O). 20 seconds after the start of the reaction, recording was performed at a paper feed of 5 cm/min at Hg 366 nm, and the layer thickness 1.00 cm, and the angle α was determined 20 seconds after the start of the reaction in each case.

[8] = molecular target: uricase obtained from swine liver (Sus scrofa, UniProt P16164); conditions: read-out: Michaelis constant of uricase, Tiffany et al., Anal. Chem. 45, 1716-23 (1973); cited from earlier work
[9] = 0.02 mmole xanthine, [S] 7.6 μmole
[10] = 0.02 mmole xanthine, [S] 38 μmole
[11] = 0.02 mmole xanthine, [S] 114 μmole
[12] = 1.4 nmoles phloretin, glucose [S] 0.86 mmoles
[13] = 1.4 nmoles phloretin, glucose [S] 1.29 mmoles
[14] = 1.4 nmoles phloretin, glucose [S] 1.72 mmoles
[15] = 1.4 nmoles phloretin, glucose [S] 2.59 mmoles
[16] = 14 nmoles phloretin, glucose [S] 0.86 mmoles
[17] = 14 nmoles phloretin, glucose [S] 1.29 mmoles
[18] = 14 nmoles phloretin, glucose [S] 1.72 mmoles
[19] = 14 nmoles phloretin, glucose [S] 2.59 mmoles
[20] = 14 nmoles phloretin, glucose [S] 3.45 mmoles
[21] = 0.31 mole KSCN, glucose [S] 0.86 mmoles
[22] = 0.31 mole KSCN, glucose [S] 1.29 mmoles
[23] = 0.31 mole KSCN, glucose [S] 1.72 mmoles
[24] = 0.31 mole KSCN, glucose [S] 2.59 mmoles
[25] = 38.5 mmoles KSCN, glucose [S] 0.86 mmoles
[26] = 38.5 mmoles KSCN, glucose [S] 1.29 mmoles
[27] = 38.5 mmoles KSCN, glucose [S] 1.72 mmoles
[28] = 38.5 mmoles KSCN, glucose [S] 2.59 mmoles
[29] = 38.5 mmoles KSCN, glucose [S] 3.45 mmoles

O=c1[nH]c(=O)c2[nH]cnc2[nH]1 [Xanthine, xanthine]
Average inhibition in % ([1]; Xanthine 20 micromoles): 34% | Average inhibition in % ([1]; Xanthine 40 micromoles): 60% | Average inhibition in % ([1]; Xanthine 80 micromoles): 76% | % inh. [2, 9]: 49% | ΔE/min [2, 9]: 14 | % inh. [2, 10]: 25% | ΔE/min [2, 10]: 66 | % inh. [2, 11]: 26% | ΔE/min [2, 11]: 127

O=C(CCc1ccc(O)cc1)c1c(O)cc(O)cc1O [Phloretin, phloretin]
Average inhibition in % ([3]; Phloretin 1.4 micromoles): 20% | Average inhibition in % ([3]; Phloretin 14 micromoles): 76% | % inh. [4, 12]: 22.8% | ΔE/min [4, 12]: 24.0 | % inh. [4, 13]: 26.0% | ΔE/min [4, 13]: 30.0 | % inh. [4, 14]: 15.8% | ΔE/min [4, 14]: 45.5 | % inh. [4, 15]: 17.1% | ΔE/min [4, 15]: 62.5 | % inh. [5, 16]: 74% | ΔE/min [5, 16]: 8.7 | % inh. [5, 17]: 77% | ΔE/min [5, 17]: 11.3 | % inh. [5, 18]: 78% | ΔE/min [5, 18]: 14.0 | % inh. [5, 19]: 76% | ΔE/min [5, 19]: 20.3 | % inh. [5, 20]: 75% | ΔE/min [5, 20]: 26.7

N#CS [KSCN, Potassium thiocyanate]
Average inhibition in % ([3]; KSCN 38.5 millimoles): 17% | Average inhibition in % ([3]; KSCN 310 millimoles): 78% | % inh. [4, 21]: 85.5% | ΔE/min [4, 21]: 4.5 | % inh. [4, 22]: 80.3% | ΔE/min [4, 22]: 8.0 | % inh. [4, 23]: 80.6% | ΔE/min [4, 23]: 10.5 | % inh. [4, 24]: 77.5% | ΔE/min [4, 24]: 17 | % inh. [5, 25]: 17% | ΔE/min [5, 25]: 28.0 | % inh. [5, 26]: 18.8% | ΔE/min [5, 26]: 40.3 | % inh. [5, 27]: 21.69% | ΔE/min [5, 27]: 49.7 | % inh. [5, 28]: 8% | ΔE/min [5, 28]: 72.3 | % inh. [5, 29]: 17% | ΔE/min [5, 29]: 90 | Average inhibition in % ([1]; KSCN 10 millimoles): 17% | Average inhibition in % ([1]; KSCN 40 millimoles): 41% | Average inhibition in % ([1]; KSCN 500 millimoles): 82% | % inh. ([2]; 0.5 mole KSCN, [S] 7.6 μmole): 86% | ΔE/min ([2]; 0.5 mole KSCN, [S] 7.6 μmole): 3.3 | % inh. ([2]; 0.5 mole KSCN, [S] 38 μmole): 81% | ΔE/min ([2]; 0.5 mole KSCN, [S] 38 μmole): 16.3 | % inh. ([2]; 0.5 mole KSCN, [S] 114 μmole): 73% | ΔE/min ([2]; 0.5 mole KSCN, [S] 114 μmole): 46 | apparent Michaelis constant ([6]; 687 mmoles per liter of test solution, uric acid as substrate, 25°C): 1 mmol/L | type of inhibitor ([6]; Lineweaver-Burk plot, same ordinate intersection): competitive inhibitor | type of inhibitor [7]: competitive type of inhibitor

O=c1[nH]c(=O)c2[nH]c(=O)[nH]c2[nH]1 [uric acid]
Km [8]: 17 µM
